Reference: patent US20120276124A1, “MAYTANSINOIDS AND THE USE OF SAID MAYTANSINOIDS TO PREPARE CONJUGATES WITH AN ANTIBODY” (priority 2009, published 2012)

What was measured:
MDA-MB231 = test: Inhibition of growth of MDA-MB-231 tumor cells by free drugs (14C thymidine uptake); format: cell-based; details: Homo sapiens, MDA-MB231, 96 hrs, read-out: cellular inhibition proliferation (IC50 in nM) MDA-MB231
Procedure: (§1) Inhibition of Growth of MDA-MB-231 and HCT116 Tumor Cells
(§2) Cells in exponential phase of growth were trypsinized and resuspended in their respective culture medium (DMEM/F12 Gibco #21331; 10% SVF Gibco #10500-056; […] Glutamine Gibco #25030 for MDA-MB231 & MDA-A1 cells; DMEM (Gibco #11960) 10%, SVF Gibco #10500-056; […] Glutamine Gibco #25030 for HCT116 cells). Cell suspension was distributed in 96-well Cytostar culture plates (GE Healthcare Europe, #RPNQ0163) in complete serum-containing media at a density of 5000 cells/well (MDA-MB231 HCT116). After coating for 4 hrs, serial dilutions were added to triplicate wells. Cells were cultured at 37° C./5% CO2 in the presence of the drug for 3 days. On the 4th day, 10 μl of a solution of 14C thymidine (0.1 μCi/well (Perkin Elmer #NEC56825000) was added to each well. The uptake of 14C thymidine was measured 96 hrs after the experiment has been started with a microbeta radioactive counter (Perkin Elmer). Cell-free reagent blanks were subtracted from the test well readings and the data were plotted as surviving fractions obtained by dividing readings of the conjugate-treated cells by the average of readings from control wells of vehicle-treated cells.

HCT116 = test: Inhibition of growth of HCT116 tumor cells by free drugs (14C thymidine uptake); format: cell-based; details: Homo sapiens, HCT-116; HCT116, 96 hrs; read-out: cellular inhibition proliferation (IC50 in nM) HCT116
Procedure: as §1, §2

Row | SMILES | IC50 (MDA-MB231) [nM] | IC50 (HCT116) [nM]
1 | COC(=O)CCOCCOCCOCCOCCNC(=O)CSC(C)(C)CCC(=O)N(C)[C@@H](C)C(=O)O[C@H]1CC(=O)N(C)c2cc(cc(OC)c2Cl)C/C(C)=C/C=C/[C@@H](OC)[C@@]2(O)C[C@H](OC(=O)N2)[C@@H](C)[C@@H]2O[C@@]12C [Example 10, L-DM4-AcNH-PEG4-COOMe] | 15.3 | 13
2 | COC(=O)CCOCCOCCOCCOCCN(C)C(=O)CSC(C)(C)CCC(=O)N(C)[C@@H](C)C(=O)O[C@H]1CC(=O)N(C)c2cc(cc(OC)c2Cl)C/C(C)=C/C=C/[C@@H](OC)[C@@]2(O)C[C@H](OC(=O)N2)[C@@H](C)[C@@H]2O[C@@]12C [Example 11, L-DM4-AcNMe-PEG4-COOMe] | 28.3 | 18.5
3 | COC(=O)CCOCCOCCOCCOC/C=C/CSC(C)(C)CCC(=O)N(C)[C@@H](C)C(=O)O[C@H]1CC(=O)N(C)c2cc(cc(OC)c2Cl)C/C(C)=C/C=C/[C@@H](OC)[C@@]2(O)C[C@H](OC(=O)N2)[C@@H](C)[C@@H]2O[C@@]12C [Example 12, L-DM4-Allyl-PEG4-COOMe] | 1.5 | 0.8
4 | COC(=O)CCOCCOCCOCCOCCNC(=O)CCN1C(=O)CC(SC(C)(C)CCC(=O)N(C)[C@@H](C)C(=O)O[C@H]2CC(=O)N(C)c3cc(cc(OC)c3Cl)C/C(C)=C/C=C/[C@@H](OC)[C@@]3(O)C[C@H](OC(=O)N3)[C@@H](C)[C@@H]3O[C@@]23C)C1=O (stereo partly drawn) [Example 14, L-DM4-Mal-PEG4-COOMe] | 31.7 | 33.6
